Assay results as given in patent US11072634B2, “Inhibitors of transglutaminases” (Zedira GmbH, priority 2016, dated 2021).

Target: T1, recombinant human tissue transglutaminase (rhTG2) (Homo sapiens, UniProt P21980)
T1 construct: purchased Zedira 1022 (so in the source); T022)
T1 sequence (P21980 1-687): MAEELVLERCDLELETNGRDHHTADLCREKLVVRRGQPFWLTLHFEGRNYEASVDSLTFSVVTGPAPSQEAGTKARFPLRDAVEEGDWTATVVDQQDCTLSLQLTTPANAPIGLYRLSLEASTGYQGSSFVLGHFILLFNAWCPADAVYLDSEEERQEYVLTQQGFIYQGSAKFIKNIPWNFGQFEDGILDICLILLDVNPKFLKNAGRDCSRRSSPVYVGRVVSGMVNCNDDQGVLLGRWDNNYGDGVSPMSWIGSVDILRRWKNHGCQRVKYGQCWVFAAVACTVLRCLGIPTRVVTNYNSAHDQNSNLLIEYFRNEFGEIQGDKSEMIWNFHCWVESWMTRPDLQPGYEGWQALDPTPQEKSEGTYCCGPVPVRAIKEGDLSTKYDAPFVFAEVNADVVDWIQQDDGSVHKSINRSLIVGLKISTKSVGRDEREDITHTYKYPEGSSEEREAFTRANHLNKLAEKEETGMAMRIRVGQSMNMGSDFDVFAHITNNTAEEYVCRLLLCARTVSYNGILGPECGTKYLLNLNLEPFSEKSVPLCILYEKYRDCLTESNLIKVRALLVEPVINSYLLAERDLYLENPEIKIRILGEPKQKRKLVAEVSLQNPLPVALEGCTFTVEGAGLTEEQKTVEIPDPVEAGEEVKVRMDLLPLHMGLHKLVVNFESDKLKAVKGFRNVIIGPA
Assay: Inhibition of rec. human tissue transglutaminase (fluorescence, Abz-APE(CAD-DNP)QEA-OH)
Assay type: biochemical
Conditions: Table 2, TG2 inhibitors
Experimental: Method for Inhibition Studies of Rec. Human Tissue Transglutaminase (rhTG2)
250 μg lyophilized His-tagged recombinant human tissue transglutaminase (His6-rhTG2, Zedira product 1022) is reconstituted in H2O (volume depends on original volume before lyophilization) resulting in a buffer containing 10 mM Tris-HCl, 150 mM NaCl, 1 mM EDTA, 5 mM DTT, 189 mg/ml maltodextrin, pH=8.1. The rhTG2 stock solution is diluted in buffer (50 mM Tris-HCl, 7.5 mM CaCl2, 150 mM NaCl, pH=7.4) to give a working solution of 100 U/ml (based on the amine-incorporation activity measured using T036, described below).
A 10 mM inhibitor stock solution is prepared in DMSO, and from this stock solution a serial 1:2-fold dilution series is prepared, also in DMSO. Each of these initial dilutions is subsequently diluted 1:50-fold with buffer (50 mM Tris-HCl, 7.5 mM CaCl2, 150 mM NaCl, pH=7.4) to yield the final working dilutions containing 2% (v/v) DMSO. 15 μl of inhibitor working dilution are added per well of a 96 well microtiter plate. As control, 15 μl of a 2% (v/v) DMSO solution prepared using the buffer mentioned above are added per well.
600 μl of His6-rhTG2 working solution are added to 11.4 ml assay buffer (50 mM Iris-HCl, 7.5 mM CaCl2, 150 mM NaCl, 5 mM DTI, 13.4 mM glycine methylester, 50 μM Abz-APE(CAD-DNP)QEA-OH, (Zedira product A102; patent No.: EP 1781807B1), pH=7.4). From this master-mix solution, 285 μl are added per well containing the inhibitor. Increase in fluorescence is measured using λex=313 nm and λem=418 nm at 37° C. for 20 min. A slope of the increase in fluorescence between 10 and 20 min is calculated for determination of the IC50 value (inhibitor concentration at which 50% of the initial TG2 activity is blocked).
Analysis of enzymatic activity is performed by calculation of the slope of an increase in fluorescence intensity. IC50 values are calculated by plotting the enzymatic activity (as percentage from control containing 2% DMSO instead of inhibitor) against the inhibitor concentration. IC50 is defined as the inhibitor concentration blocking 50%) of initial enzyme activity.

Which IC50 does the source give for `CCC(CC)CNC(=O)Cn1cccc(NC(=O)[C@H](CCC(=O)C(=O)NC)NC(=O)Nc2ccccc2)c1=O` [Compound E69, (S)—N1-(1-(2-(2-ethylbutylamino)-2-oxoethyl)-2-oxo-1,2-dihydropyridin-3-yl)-N6-methyl-5-oxo-2-(3-phenylureido)hexanediamide] here?
Its IC50 is 275 nM.

With `CCC(CC)CNC(=O)Cn1cccc(NC(=O)[C@H](CCC(=O)C(=O)NC)NC(=S)Nc2ccccc2)c1=O` [Compound E70, (S)—N1-(1-(2-(2-ethylbutylamino)-2-oxoethyl)-2-oxo-1,2-dihydropyridin-3-yl)-N6-methyl-5-oxo-2-(3-phenylthioureido)hexanediamide] as the molecule, how does the IC50 read?
Its IC50 is 265 nM.

How did the IC50 turn out when `CCC(CC)CNC(=O)Cn1cccc(NC(=O)[C@H](CCCC(=O)C(=O)NC)NC(=O)c2cncn2C)c1=O` [Compound E71, (S)—N1-(1-(2-(2-ethylbutylamino)-2-oxoethyl)-2-oxo-1,2-dihydropyridin-3-yl)-N7-methyl-2-(1-methyl-1H-imidazole-5-carboxamido)-6-oxoheptanediamide] was run?
The IC50 was 6000 nM.

`CNC(=O)C(=O)CCC[C@H](NC(=O)c1cncn1C)C(=O)Nc1ccc(S(=O)(=O)N2CCN(C)CC2)cc1` [Compound E72, (S)—N1-methyl-6-(1-methyl-1H-imidazole-5-carboxamido)-N7-(4-(4-methylpiperazin-1-ylsulfonyl)phenyl)-2-oxoheptanediamide] was tested. Which IC50 did it give?
Its IC50 is 6300 nM.

With `CCC(CC)CNC(=O)Cn1cccc(NC(=O)[C@H](CCCCC(=O)C(=O)NC)NC(=O)c2cncn2C)c1=O` [Compound E73, (S)—N1-(1-(2-(2-ethylbutylamino)-2-oxoethyl)-2-oxo-1,2-dihydropyridin-3-yl)-N8-methyl-2-(1-methyl-1H-imidazole-5-carboxamido)-7-oxooctanediamide] as the molecule, how does the IC50 read?
Its IC50 is 6300 nM.

For `CCC(CC)CNC(=O)Cn1cccc(NC(=O)[C@H](CCC(=O)C(C)=O)NC(=O)c2cncn2C)c1=O` [Compound E74, (S)—N-(1-(1-(2-(2-ethylbutylamino)-2-oxoethyl)-2-oxo-1,2-dihydropyridin-3-ylamino)-1,5,6-trioxoheptan-2-yl)-1-methyl-1H-imidazole-5-carboxamide], which IC50 is on record?
The IC50 was 125 nM.

`CCC(CC)CNC(=O)Cn1cccc(NC(=O)[C@H](CCC(=O)C(=O)C2CC2)NC(=O)c2cncn2C)c1=O` [Compound E75, (S)—N-(6-cyclopropyl-1-(1-(2-(2-ethylbutylamino)-2-oxoethyl)-2-oxo-1,2-dihydropyridin-3-ylamino)-1,5,6-trioxohexan-2-yl)-1-methyl-1H-imidazole-5-carboxamide] was tested. Which IC50 did it give?
Its IC50 is 135 nM.

How did the IC50 turn out when `CCC(CC)CNC(=O)Cn1cccc(NC(=O)[C@H](CCC(=O)C(=O)c2ccccc2)NC(=O)c2cncn2C)c1=O` [Compound E76, (S)—N-(1-(1-(2-(2-ethylbutylamino)-2-oxoethyl)-2-oxo-1,2-dihydropyridin-3-ylamino)-1,5,6-trioxo-6-phenylhexan-2-yl)-1-methyl-1H-imidazole-5-carboxamide] was run?
The IC50 was 550 nM.

For `CCC(CC)CNC(=O)Cn1cccc(NC(=O)[C@H](CCC(=O)C(=O)OC)NC(=O)c2cncn2C)c1=O` [Compound E77, (S)-methyl 6-(1-(2-(2-ethylbutylamino)-2-oxoethyl)-2-oxo-1,2-dihydropyridin-3-ylamino)-5-(1-methyl-1H-imidazole-5-carboxamido)-2,6-dioxohexanoate], which IC50 is on record?
Its IC50 is 200 nM.

For `CCC(CC)CNC(=O)Cn1cccc(NC(=O)[C@H](CCC(=O)C(=O)OCCOC)NC(=O)c2cncn2C)c1=O` [Compound E78, (S)-2-methoxyethyl 6-(1-(2-(2-ethylbutylamino)-2-oxoethyl)-2-oxo-1,2-dihydropyridin-3-ylamino)-5-(1-methyl-1H-imidazole-5-carboxamido)-2,6-dioxohexanoate], which IC50 is on record?
Its IC50 is 400 nM.

With `CCC(CC)CNC(=O)Cn1cccc(NC(=O)[C@H](CCC(=O)C(=O)NOCC2CCCC2)NC(=O)c2cncn2C)c1=O` [Compound E79, (S)—N1-(cyclopentylmethoxy)-N6-(1-(2-(2-ethylbutylamino)-2-oxoethyl)-2-oxo-1,2-di-hydropyridin-3-yl)-5-(1-methyl-1H-imidazole-5-carboxamido)-2-oxohexanediamide] as the molecule, how does the IC50 read?
The IC50 was 530 nM.
